Measurements: PubChem BioAssay (NCI)
Several values for one entry are separate records, joined by “and”; a condition that tells them apart may be missing. Equal entries are not always repeated.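 Protocol summary: plate cells (96-well), add compound at 5 concentrations, incubate 48 h, interpolate endpoints linearly. GI50 is the concentration that inhibits growth by half. Definition used: TGI = concentration required for complete inhibition of growth.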

Experiments:
Assay in all cases: NCI anticancer screen, dose series, 48 h
[1] = system: HOP-92 NSCLC
[2] = system: MALME-3M melanoma
[3] = system: NCI-H23 lung
[4] = system: NCI/ADR-RES ovarian
[5] = system: SF-295 CNS
[6] = system: SF-539 CNS
[7] = system: SK-OV-3 ovarian
[8] = system: SN12C renal
[9] = system: SNB-75 CNS
[10] = system: SW-620 colon

Row | Compound | TGI [1] | TGI [2] | TGI [3] | TGI [4] | TGI [5] | TGI [6] | TGI [7] | TGI [8] | TGI [9] | TGI [10] | GI50 [1] | GI50 [2] | GI50 [3] | GI50 [4] | GI50 [5] | GI50 [6] | GI50 [7] | GI50 [8] | GI50 [9] | GI50 [10]
1 | O.O.[NH-]C1(C(=O)O)CCCC1.[NH-]C1(C(=O)O)CCCC1.[Ni+2] | > 100 µM | > 100 µM | > 100 µM | > 100 µM | > 100 µM | > 100 µM | > 100 µM | > 100 µM | > 100 µM | > 100 µM | – | – | – | – | – | – | – | – | – | –
2 | OC(Cc1ccncc1)C(Cl)(Cl)Cl (stereo not given) | > 100 µM | > 100 µM | > 100 µM | > 100 µM | > 100 µM | > 100 µM | > 100 µM | > 100 µM | > 100 µM | > 100 µM | 0.109 µM | > 100 µM | 76.3 µM | > 100 µM | 7.83 µM | > 100 µM | > 100 µM | > 100 µM | > 100 µM | > 100 µM
3 | COc1cccc(N2CCN(CC(=O)N3CCN(c4nnc(-c5ccc(Cl)cc5)c(-c5ccc(Cl)cc5)n4)CC3)CC2)c1 | 36.4 µM | > 100 µM | > 100 µM | > 100 µM | > 100 µM | 90.7 µM | 77.6 µM | > 100 µM | 52.9 µM | > 100 µM | 14.7 µM | 20.6 µM | 33.6 µM | 19.9 µM | 28.9 µM | 11.5 µM | 22 µM | 23.1 µM | 19 µM | 64.9 µM
4 | CC[C@@H]1c2c(C#N)ncn2-c2cnc(Nc3ccc(C(=O)NC4CCN(C5CCN(CC6CC6)CC5)CC4)cc3OC)nc2N1C1CCCC1 | 1.83 µM | 1.85 µM | 1.38 µM | 2.8 µM | 1.94 µM | 0.888 µM | 1.04 µM and 1.64 µM | 1.91 µM | 1.26 µM | 1.76 µM and 1.78 µM | 0.0777 µM | 0.0853 µM | 0.0374 µM | 1.29 µM | 0.0454 µM | 0.0493 µM | 0.0384 µM and 0.122 µM | 0.0916 µM | 0.0452 µM | 0.0308 µM and 0.0327 µM
5 | CSC(=Nc1nnc(-c2ccc([N+](=O)[O-])cc2)s1)SC | 33.1 µM | > 100 µM | 98.6 µM | > 100 µM | 50 µM | 44.5 µM | 62.4 µM | > 100 µM | 33.6 µM | > 100 µM | – | – | – | – | – | – | – | – | – | –
6 | ClCc1cccc2c(CCl)cccc12 | 18.7 µM | 25.5 µM | 22.8 µM | 12.1 µM | 19.5 µM | 11.7 µM | > 100 µM | 32.2 µM | 14.6 µM | 19.1 µM | 2.83 µM | 2.37 µM | 5.2 µM | 2.58 µM | 5.59 µM | 2.86 µM | 21.2 µM | 3.47 µM | 2.1 µM | 3.4 µM
7 | CN(CCO)CC[C@H](CSc1ccccc1)Nc1ccc(S(=O)(=O)NC(=O)c2ccc(N3CCC([C@@H](O)c4ccccc4-c4ccc(Cl)cc4)CC3)cc2)cc1S(=O)(=O)C(F)(F)F | 0.387 µM | 8.55 µM | > 100 µM | > 100 µM | 25.3 µM | 8 µM | 20.7 µM | 11.5 µM | 34.2 µM | 8.91 µM | 0.0415 µM | 2.48 µM | 17.7 µM | > 100 µM | 4.23 µM | 2.67 µM | 4.98 µM | 2.99 µM | 3.63 µM | 2.43 µM
8 | O=C1C(Cl)=C(Nc2cccc(F)c2)C(=O)N1Cc1ccc(Cl)cc1 | 26.2 µM | 10.8 µM | 14.4 µM | 5.61 µM | 10.9 µM | 4.04 µM | 17.6 µM | 4.81 µM | 7.63 µM | 13 µM | 11.4 µM | 1.42 µM | 0.832 µM | 0.426 µM | 1.16 µM | 1.03 µM | 2.59 µM | 0.825 µM | 0.438 µM | 0.531 µM
9 | COC(=O)c1ccc(-c2nc3cc(Cl)c(Cl)cc3nc2C#N)cc1 | > 100 µM | > 100 µM | > 100 µM | > 100 µM | > 100 µM | > 100 µM | > 100 µM | > 100 µM | > 100 µM | > 100 µM | 79 µM | > 100 µM | > 100 µM | > 100 µM | > 100 µM | > 100 µM | > 100 µM | > 100 µM | > 100 µM | > 100 µM
10 | O=C(c1ccccc1)c1ccccc1-c1ccccc1 | 47.1 µM | 65.7 µM | > 100 µM | 8.02 µM | 29 µM | 15.3 µM | 25.2 µM | > 100 µM | 19.8 µM | > 100 µM | 3.36 µM | 8.79 µM | 4.46 µM | 1 µM | 1.85 µM | 3.06 µM | 3.54 µM | 8.46 µM | 2.11 µM | 1.54 µM
11 | COc1ccc2[nH]cc(-c3ccc(-c4c[nH]c5ccc(OC)cc45)s3)c2c1 | 19.5 µM | 22.4 µM | 26.2 µM | 19.5 µM | 8.47 µM | 10.7 µM | 39.8 µM | 33.6 µM | 19.5 µM | 8.15 µM | 4.64 µM | 9.13 µM | 6.36 µM | 3.78 µM | 2.8 µM | 3.41 µM | 14.7 µM | 11.1 µM | 7.12 µM | 2.94 µM
12 | O=C(O)CN(CC(=O)O)Cc1cc(C#Cc2ccc(C#Cc3ccccc3)cc2)cc(CN(CC(=O)O)CC(=O)O)n1 | 99.6 µM | > 85.5 µM | > 89.7 µM | 35.6 µM | > 88.9 µM | 59.3 µM | > 100 µM | > 100 µM | > 100 µM | > 68 µM | – | – | – | – | – | – | – | – | – | –
13 | C[C@@]1(C(=O)O)CCC[C@]2(C)C1CC[C@@]13CC(=O)[C@@](CO)(CC[C@]12O)C3 (stereo not given in full) | 97.8 µM | > 100 µM | > 100 µM | > 100 µM | > 100 µM | > 100 µM | > 100 µM | > 100 µM | > 100 µM | > 100 µM | 11.7 µM | 24.1 µM | > 100 µM | > 100 µM | > 100 µM | > 100 µM | 21.3 µM | > 100 µM | > 100 µM | > 100 µM
